80 compounds from the METLIN SMRT retention time set (Domingo-Almenara et al. 2019) can be followed below.

This data set can be described thus: gradient 5% acetonitrile 3 min, to 50% in 2 min, to 85% in 15 min, held 3 min, 100 µL/min. Particulars: column: Zorbax Extend-C18 2.1 x 50 mm; eluents: water / acetonitrile, 0.1% formic acid. Summed up:
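Data were gathered over 3 months by HPLC coupled to a quadrupole time-of-flight mass spectrometer, operated in positive and negative ionization mode. Mixtures of ~100 pure standards ran on a Zorbax Extend-C18 column (2.1 × 50 mm, 1.8 μm) at 100 μL/min, with water and acetonitrile each containing 0.1% formic acid and dead and dwell volumes of 40 μL and 900 μL. Retention time was read from adduct peaks picked by computer and checked manually.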
In the case of `CCn1cc(C(=O)Nc2cccc(C)c2)c2cccnc21`, the RP-LC retention time was determined as 857 s.
Under `O=C(NCc1cscn1)C1CCN(S(=O)(=O)c2ccc(Br)s2)CC1` stands 740 s.
In turn, `CCOc1ccc2nc(Nc3nc(C)c4c(n3)CCCC4)nc(C)c2c1` returned an RP-LC retention time of 573 s.
The same measure for `Cc1nnc(-c2nnc(NCc3ccccc3)c3ccccc23)o1`: 776 s.
Under `Cc1cccc(CNS(=O)(=O)c2cc3n(c2)CCCNC3=O)c1` stands 677 s.
The same measure for `CCc1nccn1Cc1nc(-c2ccc(F)cc2)no1`: 625 s; for `O=C(Nc1cnc(N2CCCCC2)nc1)c1cc(F)cc(F)c1`: 984 s; for `CCC(CC)NC(=O)[C@@H]1[C@H](c2cc(OC)c(OC)c(OC)c2)c2cc3c(cc2[C@H](O)[C@H]1CO)OCO3`: 692 s.
The compound `CCn1cc(CC(=O)NCCOC)c2cccnc21` had an RP-LC retention time of 576 s.
Under `CC1CN(C(=O)CCC(=O)N2CCN(c3ccccn3)CC2)c2ccccc2O1` (stereo not given) stands 623 s; under `CN(C)C(CNC(=O)NCc1cccs1)c1cn(C)c2ccccc12` (stereo not given), 586 s.
`CCn1nnc2cc(-c3noc(-c4ccc(NC(C)=O)cc4)n3)ccc21` had an RP-LC retention time of 812 s.
The same measure for `Cc1nn(-c2ccccc2)c(C)c1S(=O)(=O)N1CCC(C(=O)Nc2cccc(Cl)c2)CC1`: 1040 s; for `Cc1nc(COc2ccccc2)sc1C(=O)NCCN(C)C`: 611 s.
The same measure for `O=C(c1ccccc1F)N1CCCn2cc(-c3ccccc3F)nc21`: 792 s; for `Cc1ccc(CNC(=O)c2cccc(C3CCCN(C(=O)NC(C)C)C3)c2)cc1C` (stereo not given): 952 s; for `CC(=O)N1c2ccc(S(=O)(=O)N3CCCCC3)cc2CC1C(=O)NCCc1ccc(Cl)cc1` (stereo not given): 924 s.
Under `Cc1cc(C)n(-c2ccnc(N3CCC(C(=O)NCC(C)C)CC3)n2)n1` stands 768 s.
In turn, `COc1ccc(NC(=O)Cn2c(N3CCCC3)nc(C)cc2=O)cc1` registered an RP-LC retention time of 603 s.
On to `COc1ccc(S(=O)(=O)NC2CCN(C(=O)Nc3ccc(F)c(Cl)c3)CC2)cc1`, for which the RP-LC retention time was found to be 900 s.
The same measure for `Cc1ccccc1-c1nc2cnccn2c1NCCC(=O)NCc1ccc(F)c(Cl)c1`: 714 s.
With `CN(CC1CCOCC1)C(=O)Nc1cccc(C(F)(F)F)c1`, the RP-LC retention time stood at 816 s.
Take `CS(=O)(=O)Nc1cccc(NC(=O)c2ccc(N3CCOCC3)nn2)c1`: the RP-LC retention time worked out at 633 s.
Under `CCOc1cc(=O)n2c(c1C(=O)N1CCN(C3CCCCC3)CC1)CCCCC2` stands 590 s; under `CSc1cccc(NC(=O)C2CCCN(c3ccc(=O)n(-c4cccc(Cl)c4)n3)C2)c1` (stereo not given), 1010 s; under `COC(=O)c1ncn2c1C(=O)N(Cc1cccc(F)c1)C(C)(C(=O)NCc1ccc(C)cc1)C2` (stereo not given), 760 s.
The same measure for `CCS(=O)(=O)c1nc2ccc(NS(=O)(=O)c3ccc(C(C)(C)C)cc3)cc2s1`: 1040 s; for `Cc1cc([N+](=O)[O-])nn1CC(=O)NCc1cccs1`: 572 s; for `Cc1cc(N2CCN(C(=O)Cc3ccccc3Br)CC2)nc2nnc(C)n12`: 623 s.
With `O=C(c1ccccn1)N1CCCC(OCc2nc(C3CC3)no2)C1` (stereo not given), the RP-LC retention time is 619 s.
Under `COCCC1(NS(C)(=O)=O)CCN(C(=O)C2(c3ccc(OC)cc3)CC2)CC1` stands 710 s.
Regarding `COCc1cc2nn(CC(=O)Nc3cc(F)ccc3C)c(=O)n2c(-c2ccccc2)n1`, the RP-LC retention time is 853 s.
Under `COc1ccc(-c2cn3ccn(-c4ccc(Br)cc4)c(=O)c3n2)cc1OC` stands 795 s.
The same measure for `CCc1ccc(S(=O)(=O)N2CCC(c3nc(C(=O)N4CCOCC4)c(C)o3)CC2)cc1`: 904 s; for `O=C(NC1CC1)[C@@H]1C[C@H](Oc2ccccc2)CN1C(=O)Cn1c(=O)oc2ccccc21`: 786 s; for `CCOC(=O)C1CCN(S(=O)(=O)c2cc(-c3nc(C(C)(C)C)cs3)cs2)CC1`: 1310 s.
Under `CCCCN1CCN(Cc2nc(-c3ccc(N4CCOCC4)nc3)no2)CC1` stands 587 s.
`Cn1c(CC2CCN(C(=O)COc3cccc(Cl)c3)C2)nc2cccnc21` (stereo not given) gave an RP-LC retention time of 608 s.
The same measure for `Cc1cccc2c(C(=O)NC(C)C)cc(N3CCCC3)nc12`: 611 s.
The same measure for `Cc1cccc(-n2ccnc(SCC(=O)Nc3cc(Cl)ccc3C)c2=O)c1`: 915 s.
Under `Cc1ccc(-c2nc(NC(=O)c3cc4ccccc4o3)sc2C)cc1` stands 1220 s.
Consider `O=C(Cc1nnc2c(-c3nc(C4CC4)no3)cccn12)N1CCCCC1`, for which the RP-LC retention time was 616 s.
The same measure for `Cn1cccc1C(=O)N1CC[C@H](n2c(=O)n(C)c3cccnc32)C1`: 695 s; for `O=C(Cn1c(=O)oc2ccccc21)Nc1nc(-c2nc3ccccc3s2)cs1`: 866 s; for `COc1cccc(S(=O)(=O)N2CCC3(CC2)C(OC)C(=O)N3c2cccc(F)c2)c1` (stereo not given): 1040 s.
Under `Cc1ccc(C)c(NC(=O)Cn2cnc3nc(N4CCCC(C(=O)NC(C)C)C4)sc3c2=O)c1` (stereo not given) stands 731 s.
Under `CCOC(=O)c1c(C)oc2nc(C)nc(N(C)Cc3ccccc3)c12` stands 1150 s; under `O=C(CCNc1cnc2cnccn12)NCc1cccc(Cl)c1`, 590 s; under `COc1ccc(N2CC(c3noc(-c4ccc(F)c(F)c4)n3)CC2=O)cc1` (stereo not given), 948 s.
With `O=C(NC1CCCCC1)c1csc(-c2ccc(N3CCCC3)nc2)n1`, the RP-LC retention time came to 739 s.
Compound `Cc1ccc(C)c(N2CCN(c3ccnc(SCC(=O)Nc4ccc(Cl)cc4)n3)CC2)c1` had an RP-LC retention time of 967 s.
Regarding `O=C(c1ccncc1)N1CCN(C(=O)c2nnn3c2COC(c2ccc(Cl)cc2)C3)CC1` (stereo not given), the RP-LC retention time turned out to be 717 s.
Under `Cc1cccc(C)c1-n1nnc(C(=O)NCC2CCCO2)c1C` (stereo not given) stands 754 s; under `CCN(CC)CCCNC(=O)C1CCN(c2nc3cccnc3s2)CC1`, 570 s.
The same measure for `Cc1cn(-c2ccc(SCC(=O)NCc3ccc4c(c3)OCO4)nn2)cn1`: 558 s.
Under `CCOC(=O)C1=Cc2ccc(C(F)(F)C(F)(F)F)cc2N=C(N)C1` stands 794 s.
The compound `CN1C(=O)COc2ccc(-c3csc(NC(=O)c4cccc(Br)c4)n3)cc21` came in with an RP-LC retention time of 1060 s.
The same measure for `COc1ccccc1-c1nc(Cn2nnc(-c3nc(-c4cccc(OC)c4OC)no3)c2C)c(C)o1`: 1050 s; for `CCNC(=O)C1CCN(C(=O)N2C[C@H]3C[C@H](C2)[C@H]2CCCC(=O)N2C3)CC1`: 599 s; for `Cc1c(F)cccc1NC(=O)N1CCC(n2cnnc2C2CC2)C1` (stereo not given): 655 s.
Under `Cn1ncc2c(Nc3ccccc3Cl)nc(Cl)nc21` stands 891 s; under `Cc1cc(C)c2[nH]c3c(c(=O)c2c1)CN(CC(=O)Nc1ccccc1)CC3`, 627 s.
The same measure for `CCCC(C)C(=O)N1CCCN(C2=NS(=O)(=O)C(c3ccc(CC)cc3)=C2C)CC1` (stereo not given): 935 s.
As for `CC(C)(C)NC(=O)N1CCC(CNC(=O)CSc2ccc(F)cc2)CC1`, the RP-LC retention time amounted to 715 s.
For the compound `O=C(CSc1nccn1Cc1ccco1)Nc1ccccc1F`, the RP-LC retention time is 600 s.
Under `Cc1ccc2nc(CN3CCN(C(=O)Nc4ccc(F)cc4F)CC3)oc2c1` stands 706 s; under `Cn1c(=O)c(C(=O)N2CCN(c3ccccn3)CC2)nn(-c2ccc(Cl)cc2)c1=O`, 663 s; under `COc1ccc(-c2cn3c(CC(=O)NC4CCCCC4)csc3n2)cc1OC`, 702 s.
Under `COc1cc(OC)cc(C(=O)NCC2(O)CCOCC2)c1` stands 589 s.
The same measure for `O=C(Nc1cccnc1)C1CCCN(S(=O)(=O)c2c[nH]c(C(=O)N3CCCC3)c2)C1` (stereo not given): 594 s.
Compound `CCC(CC)C(=O)Nc1cccc(C(=O)Nc2nc(-c3ccccc3)cs2)c1` showed an RP-LC retention time of 1070 s.
The same measure for `COc1ccc(-c2noc(Cc3nnc(-c4ccc(C)c(F)c4)o3)n2)cc1`: 1050 s.
The same measure for `COc1ccc(CN2CCc3nc(N4CCN(c5ccccc5OC)CC4)ncc3C2)cc1`: 762 s; for `Cc1ccc(N2CC(c3noc(COc4cccc(C)c4)n3)CC2=O)cc1` (stereo not given): 1050 s.
Under `CC(C)(C)c1noc(-c2ccc(-n3cnc(C(=O)NCc4ccc(F)cc4)c3)nc2)n1` stands 1330 s; under `CC1CCN(c2ccc(-c3cccc(N)c3)nn2)CC1`, 588 s.
Consider `CN1c2cc(F)ccc2C(=O)NC12CCN(C(=O)NCc1ccccc1)CC2`, for which the RP-LC retention time amounted to 724 s.
The same measure for `CCOC(=O)c1sc2cccc(F)c2c1S(=O)(=O)N1CCN(c2ccccn2)CC1`: 767 s.
The same measure for `O=C(NC1CC1)C1CCN(c2nnc(-c3ccccc3)o2)CC1`: 657 s; for `Cc1cc(C)c(CNC(=O)C2CC(=O)N(c3cccc(NC(=O)C4CCC4)c3)C2)c(C)c1` (stereo not given): 892 s.
